# Results reported in US8058286B2, “Method for therapy of diarrhea-predominant irritable bowel disorders” (Toray Industries, Inc., priority 2005, dated 2011).
# Where a name gives a salt, the structure may show the parent alone.
# Tested on: Rat Defecation Models Induced by Restraint Stress
# Experiment: Rat defecation models induced by restraint stress (number of feces within 60 minutes)
# Type: in vivo
# Excerpt: The fact that the morphinan derivatives having the nitrogen-containing cyclic substituent, represented by Formula (I) and the pharmaceutically acceptable acid addition salts thereof are effective for functional bowel disorders may be confirmed by showing inhibitory action against transportation ability of large intestine, which ability has been increased by applying restraint stress. The inhibitory action against the increased transportation ability of large intestine may be confirmed by a reported method (Miyata K et. al., J. Pharmacol. Exp. Ther., 261, 297-303, 1992. or Kobayashi S et. al., Jpn. J. Pharmacol., 86, 281-8, 2001.), but the method is not restricted thereto.
# A solvent or the Compound 1 was subcutaneously administered, and 15 minutes later, application of restraint stress was started. The number of feces within 60 minutes from the beginning of the application of the stress was counted and the effect was evaluated (one group consisted of 6 rats). The rats in a control group to which the restraint stress was not applied were merely moved to a new plastic cage.
# In the group to which 5 w/v % xylitol solution containing 0.1 w/v % citric acid used as the solvent alone was administered, the rats to which the restraint stress was not applied defecated 1.0 feces on average within the 60 minutes, while the rats to which the restraint stress was applied defecated 6.5 feces on average, so that increase in the number of feces caused by the stress was observed.
# Compounds 10, 11, 12 and 13 were evaluated in the same manner as in Example 1. In the group to which 5 w/v % xylitol solution containing 0.1 w/v % citric acid used as the solvent alone was administered, the rats to which the restraint stress was applied defecated 7.5 feces on average within the 60 minutes. The number of feces was decreased to 0.3 on average when 0.3 mg/kg of Compound 10 was administered, decreased to 4.2 on average when 1 mg/kg of Compound 11 was administered, decreased to 3.7 on average when 0.3 mg/kg of Compound 12 was administered, and decreased to 4.1 on average when 10 mg/kg of Compound 13 was administered.
# [1] = 0.3 mg/kg subcutaneous 15 minutes before restraint stress, solvent group with stress 7.5
compound,measurement,setting,value
"O=C1c2ccccc2C(=O)N1[C@@H]1CC[C@@]2(O)[C@H]3Cc4ccc(O)c5c4[C@@]2(CCN3CC2CC2)[C@H]1O5 [Compound 1, N-(17-cyclopropylmethyl-4,5α-epoxy-3,14-dihydroxy-morphinan-6β-yl)-phthalimide]",number of feces on average within 60 minutes from the beginning of restraint stress,"0.15 mg/kg subcutaneous 15 minutes before restraint stress, solvent group with stress 6.5, without stress 1.0",1.0
same,activity to reduce the number of feces with respect to the solvent group,"0.15 mg/kg subcutaneous, restraint stress, result in words",statistically significant activity to reduce the number of feces was observed
"O=C1C2=C(CCCC2)C(=O)N1[C@@H]1CC[C@@]2(O)[C@H]3Cc4ccc(O)c5c4[C@@]2(CCN3CC2CC2)[C@H]1O5 [Compound 10, N-(17-cyclopropylmethyl-4,5α-epoxy-3,14-dihydroxy-morphinan-6β-yl)-3,4,5,6-tetrahydrophthalimide•tartaric Acid Salt]",number of feces on average within 60 minutes from the beginning of restraint stress,[1],0.3
"O=C1c2cccc(F)c2CN1[C@@H]1CC[C@@]2(O)[C@H]3Cc4ccc(O)c5c4[C@@]2(CCN3CC2CC2)[C@H]1O5 [Compound 11, 2-(17-cyclopropylmethyl-4,5α-epoxy-3,14-dihydroxy-morphinan-6β-yl)-4-fluoro-2,3-dihydro-isoindole-1-one-methanesulfonic Acid Salt]",number of feces on average within 60 minutes from the beginning of restraint stress,"1 mg/kg subcutaneous 15 minutes before restraint stress, solvent group with stress 7.5",4.2
"O=C1c2ccccc2S(=O)(=O)N1[C@@H]1CC[C@@]2(O)[C@H]3Cc4ccc(O)c5c4[C@@]2(CCN3CC2CC2)[C@H]1O5 [Compound 12, N-(17-cyclopropylmethyl-4,5α-epoxy-3,14-dihydroxy-morphinan-6β-yl)-O-sulfonbenzimide•tartaric Acid Salt]",number of feces on average within 60 minutes from the beginning of restraint stress,[1],3.7
"O=C1C=CC(=O)N1[C@@H]1CC[C@@]2(O)[C@H]3Cc4ccc(O)c5c4[C@@]2(CCN3CC2CC2)[C@H]1O5 [Compound 13, N-(17-cyclopropylmethyl-4,5α-epoxy-3,14-dihydroxy-morphinan-6β-yl)-maleimide•tartaric Acid Salt]",number of feces on average within 60 minutes from the beginning of restraint stress,"10 mg/kg subcutaneous 15 minutes before restraint stress, solvent group with stress 7.5",4.1
